Where no end group is shown, it is not given here. [ ]: non-standard residue; d: D form. NMeR = CN[C@@H](CCCNC(=N)N)C(=O)O; αMeR = C[C@](N)(CCCNC(=N)N)C(=O)O; NMeE = CN[C@@H](CCC(=O)O)C(=O)O; αMeE = C[C@](N)(CCC(=O)O)C(=O)O
Tested on: orthotopic 22Rv1 xenograft tumors
Assay: In vivo homing of FAM-labeled CREKA and methylated CREKA peptides
Set-up: species or system mouse
Conditions: for tumor fluorescence compared to unmodified CREKA: 200 μg FAM-conjugated peptide, 3 hrs, Image J
Procedure: Tumor accumulation of CREKA peptide and its N-methylated and C-methylated variants. The accumulation of N-methylated and C-methylated derivatives of CREKA was measured in mice bearing orthotropic 22Rv-1 xenograft tumors. The mice were intravenously injected with 200 μg of FAM-conjugated CREKA or methylated CREKA peptides derivatives. The peptides were allowed to circulate for 3 hrs. The mice were then perfused through the heart with PBS, and organs were collected and the fluorescence was measured under UV light. The fluorescence was analyzed with Image J software. Most N/C-methylated CREKA analogs produced stronger fluorescence compared to the unmodified CREKA. […] In FIG. 10B the enhanced fluorescence of CR(NMe)EKA is shown in the tumor compared to both CREKA and C(NMe)REKA peptide. It is shown that FAM-labeled CREKA peptide in which the glutamic acid is N-methylated accumulates in tumor tissue more strongly than unmodified CREKA.
Orthotopic prostate cancers were used when they reached 0.5-1 cm in size. Synthetic peptides labeled with fluorescein (approximately 200 μg) were intravenously injected into tumor-bearing mice and allowed to circulate for 15 minutes to 3 hours. The mice were perfused with PBS through the heart under anesthesia, and tissues were collected and observed under UV light (Illumatool Bright Light System LT-9900, Lightools Research, Encinitas, Calif.), and then processed for immunofluorescence or immunohistochemistry.

| Substance | tumor fluorescence compared to unmodified CREKA | accumulation in areas rich in fibrin(ogen) and fibronectin (confocal microscopy of tumor sections) | tumor accumulation / fluorescence of CREKA analogs (FAM-labeled peptides, Example 3) |
| --- | --- | --- | --- |
| CRE(CMe)KA: Cα-methylated CREKA analog (CR[αMeE]KA) | significantly more fluorescence | equally active | – |
| C(NMe)REKA: CREKA analog in which the arginine residue is N-methylated (C[NMeR]EKA) | did not show an enhanced fluorescence | – | only weak tumor fluorescence |
| CR(NMe)E(NMe)KA: doubly N-methylated CREKA analog (C[NMeR][NMeE]KA) | significantly more fluorescence | – | – |
| CRE(NMe)KA: N-methylated CREKA analog (CR[NMeE]KA) | significantly more fluorescence | – | – |
| CR(CMe)EKA: Cα-methylated CREKA analog (C[αMeR]EKA) | significantly more fluorescence | – | – |
